In one assay the target is BACE1 (Homo sapiens (Human), UniProt P56817). As to the kind of experiment: Cellular Aβ-lowering assay. To be noted: HEK293 cells stably expressing human APP wt (APP695); Aβ40 in supernatant by ELISA after 18-20 hrs. It counts as cell-based. On the procedure:
Cellular Aβ-Lowering Assay: Human HEK293 cells which are stably transfected with a vector expressing a cDNA of the human APP wt gene (APP695) were used to assess the potency of the compounds in a cellular assay. The cells were seeded in 96-well microtiter plates in cell culture medium (Iscove, plus 10% (v/v) fetal bovine serum, glutamine, penicillin/streptomycin) to about 80% confluence and the compounds were added at a 10× concentration in 1/10 volume of medium without FCS containing 8% DMSO (final concentration of DMSO was kept at 0.8% v/v). After 18-20 hrs incubation at 37° C. and 5% CO2 in a humidified incubator the culture supernatant was harvested for the determination of Aβ40 concentrations. […] After blocking of non-specific binding sites with e.g. 1% BSA and washing, the culture supernatants were added in suitable dilutions together with a horseradish peroxidase-coupled Aβ detection antibody (e.g., antibody 4G8, Senetek, Maryland Heights, Mo.) and incubated for 5 to 7 hrs. Subsequently the wells of the microtiter plate were washed extensively with Tris-buffered saline containing 0.05% Tween 20 and the assay was developed with tetramethylbenzidine/H2O2 in citric acid buffer. After stopping the reaction with one volume […] the reaction was measured in an ELISA reader at 450 nm wavelength. The concentrations of Aβ in the culture supernatants were calculated from a standard curve obtained with known amounts of pure Aβ peptide.

A further assay addresses BACE2 (Rattus norvegicus (Rat), UniProt Q6IE75). As to the kind of experiment: Assay for BACE inhibition by measuring cellular TMEM27 cleavage. It counts as cell-based. To be noted: INS-TMEM27 (INS1e rat cell line, inducible hTMEM27); shed TMEM27 by ELISA. An excerpt: Assay for BACE Inhibition by Measuring Cellular TMEM27 Cleavage:
The assay uses the principle of inhibition of human TMEM27 cleavage by endogenous cellular BACE2 in the Ins1e rat cell line and shedding from the cell surface into the culture medium, followed by detection in an ELISA assay Inhibition of BACE2 prevents the cleavage and shedding in a dose-dependent manner.
The stable cell line “INS-TMEM27” represents an INS1e-derived cell line with inducible expression (using the TetOn system) of full-length hTMEM27 in a doxycycline-dependent manner. The cells are cultured throughout the experiment in RPMI1640+Glutamax (Invitrogen) Penicillin/Streptomycin, 10% Fetal bovine serum, […], […], 100 micrograms/ml G418 and 100 microgram/ml hygromycin and are grown inadherent culture at 37° C. in a standard CO2 cell culture incubator.
INS-TMEM27 cells are seeded in 96-well plates. After 2 days in culture, BACE2 inhibitor is added in a range of concentrations as required by the assay and after a further two hours, doxycycline is added to a final concentration of 500 ng/ml. The cells are incubated for a further 46 hours and the supernatant harvested for detection of shed TMEM27.
An ELISA assay (using a pair of mouse anti-human-TMEM27 antibodies, raised against the extracellular domain of TMEM27) is used for detection of TMEM27 in the culture medium. An EC50 for BACE2 inhibition is calculated using the ELISA readout for each inhibitor concentration with standard curve-fitting software such as XLFit for the Excel spreadsheet program.

Chain of BACE2 (Q6IE75 63-514): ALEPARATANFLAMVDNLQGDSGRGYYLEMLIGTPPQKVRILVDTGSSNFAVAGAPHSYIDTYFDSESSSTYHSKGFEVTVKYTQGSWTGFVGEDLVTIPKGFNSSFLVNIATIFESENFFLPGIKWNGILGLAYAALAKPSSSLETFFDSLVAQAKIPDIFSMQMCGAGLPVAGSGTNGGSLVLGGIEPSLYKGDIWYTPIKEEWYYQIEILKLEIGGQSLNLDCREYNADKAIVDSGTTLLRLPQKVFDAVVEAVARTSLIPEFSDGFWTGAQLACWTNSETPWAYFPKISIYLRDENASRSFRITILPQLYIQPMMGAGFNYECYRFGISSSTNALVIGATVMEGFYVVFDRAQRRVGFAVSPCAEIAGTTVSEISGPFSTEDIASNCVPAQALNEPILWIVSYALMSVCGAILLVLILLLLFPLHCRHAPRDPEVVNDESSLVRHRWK
Chain of BACE1 (P56817 46-501): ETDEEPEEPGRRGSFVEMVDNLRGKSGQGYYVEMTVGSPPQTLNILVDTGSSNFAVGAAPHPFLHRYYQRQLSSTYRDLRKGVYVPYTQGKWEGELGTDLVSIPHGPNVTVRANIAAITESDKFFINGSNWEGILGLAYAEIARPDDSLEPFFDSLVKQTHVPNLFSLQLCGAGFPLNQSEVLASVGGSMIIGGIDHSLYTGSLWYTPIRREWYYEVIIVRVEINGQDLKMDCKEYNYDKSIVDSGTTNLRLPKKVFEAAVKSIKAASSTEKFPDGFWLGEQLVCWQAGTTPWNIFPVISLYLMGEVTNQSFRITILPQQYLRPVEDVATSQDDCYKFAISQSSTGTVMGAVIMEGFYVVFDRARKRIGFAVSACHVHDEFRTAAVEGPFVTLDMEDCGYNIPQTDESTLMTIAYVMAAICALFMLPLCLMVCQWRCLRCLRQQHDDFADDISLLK

In the case of `C[C@]1(c2cc(NC(=O)c3ccc(Cl)cn3)ccc2F)N=C(N)OC[C@@H]1F` [Example 1, 5-Chloro-pyridine-2-carboxylic acid [3-((4R,5R)-2-amino-5-fluoro-4-methyl-5,6-dihydro-4H-[1,3]oxazin-4-yl)-4-fluoro-phenyl]-amide], the IC50 at BACE1 came to 0.4 nM; on BACE2, 1 nM.
Turning to `C[C@]1(c2cc(NC(=O)c3ncc(Cl)cc3Cl)ccc2F)N=C(N)OC[C@@H]1F` [Example 2, 3,5-Dichloro-pyridine-2-carboxylic acid [3-((4R,5R)-2-amino-5-fluoro-4-methyl-5,6-dihydro-4H-[1,3]oxazin-4-yl)-4-fluoro-phenyl]-amide], the half-maximal inhibitory concentration (IC50) on BACE1 amounted to 0.6 nM; at BACE2, 8 nM.
Regarding `C[C@]1(c2cc(NC(=O)c3ncc(F)cc3F)ccc2F)N=C(N)OC[C@@H]1F` [Example 3, 3,5-Difluoro-pyridine-2-carboxylic acid [3-((4R,5R)-2-amino-5-fluoro-4-methyl-5,6-dihydro-4H-[1,3]oxazin-4-yl)-4-fluoro-phenyl]-amide], the IC50 on BACE1 came to 1 nM; at BACE2 it was 7 nM.
In the case of `C[C@]1(c2cc(NC(=O)c3ccc(OCF)cn3)ccc2F)N=C(N)OC[C@@H]1F` [Example 5, 5-Fluoromethoxy-pyridine-2-carboxylic acid [3-((4R,5R)-2-amino-5-fluoro-4-methyl-5,6-dihydro-4H-[1,3]oxazin-4-yl)-4-fluoro-phenyl]], the IC50 came to 1 nM at BACE1 and 106 nM against BACE2.
With `C[C@]1(c2cc(NC(=O)c3ccc(OC(F)F)cn3)ccc2F)N=C(N)OC[C@@H]1F` [Example 6, 5-Difluoromethoxy-pyridine-2-carboxylic acid [3-((4R,5R)-2-amino-5-fluoro-4-methyl-5,6-dihydro-4H-[1,3]oxazin-4-yl)-4-fluoro-phenyl]-amide], the IC50 on BACE1 amounted to 2 nM.
On to `C[C@]1(c2cc(NC(=O)c3ncc(C#N)cc3Cl)ccc2F)N=C(N)OC[C@@H]1F` [Example 7, 3-Chloro-5-cyano-pyridine-2-carboxylic acid [3-((4R,5R)-2-amino-5-fluoro-4-methyl-5,6-dihydro-4H-[1,3]oxazin-4-yl)-4-fluoro-phenyl]-amide], for which the IC50 against BACE1 stood at 2 nM; against BACE2, 10 nM.
For `C[C@]1(c2cc(NC(=O)c3ncc(Cl)cc3F)ccc2F)N=C(N)OC[C@@H]1F` [Example 8, 5-Chloro-3-fluoro-pyridine-2-carboxylic acid [3-((4R,5R)-2-amino-5-fluoro-4-methyl-5,6-dihydro-4H-[1,3]oxazin-4-yl)-4-fluoro-phenyl]-amide], the IC50 on BACE1 turned out to be 2 nM; on BACE2, 6 nM.
Consider `C[C@]1(c2cc(NC(=O)c3ncc(C(F)(F)F)cc3Cl)ccc2F)N=C(N)OC[C@@H]1F` [Example 9, 3-Chloro-5-trifluoromethyl-pyridine-2-carboxylic acid [3-((4R,5R)-2-amino-5-fluoro-4-methyl-5,6-dihydro-4H-[1,3]oxazin-4-yl)-4-fluoro-phenyl]-amide], for which the IC50 against BACE1 was 2 nM; at BACE2 it was 124 nM.
In turn, `C[C@]1(c2cc(NC(=O)c3cnc(OCF)cn3)ccc2F)N=C(N)OC[C@@H]1F` [Example 10, 5-Fluoromethoxy-pyrazine-2-carboxylic acid [3-((4R,5R)-2-amino-5-fluoro-4-methyl-5,6-dihydro-4H-[1,3]oxazin-4-yl)-4-fluoro-phenyl]-amide] had an IC50 at BACE1 of 24 nM. This counts as double-digit nanomolar.
Take `C[C@]1(c2cc(NC(=O)c3ncc(C(F)(F)F)cc3F)ccc2F)N=C(N)OC[C@@H]1F` [Example 12, 3-Fluoro-5-trifluoromethyl-pyridine-2-carboxylic acid [3-((4R,5R)-2-amino-5-fluoro-4-methyl-5,6-dihydro-4H-[1,3]oxazin-4-yl)-4-fluoro-phenyl]-amide]: the IC50 at BACE1 is 4 nM.
As for `C[C@]1(c2cc(NC(=O)c3cnc(OCC(F)F)cn3)ccc2F)N=C(N)OC[C@@H]1F` [Example 19, 5-(2,2-Difluoro-ethoxy)-pyrazine-2-carboxylic acid [3-((4R,5R)-2-amino-5-fluoro-4-methyl-5,6-dihydro-4H-[1,3]oxazin-4-yl)-4-fluoro-phenyl]-amide], on BACE1, the IC50 was 8 nM.
`C[C@]1(c2cc(NC(=O)c3ccc(OCC(F)F)cn3)ccc2F)N=C(N)OC[C@@H]1F` [Example 21, 5-(2,2-Difluoro-ethoxy)-pyridine-2-carboxylic acid [3-((4R,5R)-2-amino-5-fluoro-4-methyl-5,6-dihydro-4H-[1,3]oxazin-4-yl)-4-fluoro-phenyl]-amide] had an IC50 at BACE1 of 13 nM.
`C[C@]1(c2cc(NC(=O)c3ccc(OCC4CC4)cn3)ccc2F)N=C(N)OC[C@@H]1F` [Example 23, 5-Cyclopropylmethoxy-pyridine-2-carboxylic acid [3-((4R,5R)-2-amino-5-fluoro-4-methyl-5,6-dihydro-4H-[1,3]oxazin-4-yl)-4-fluoro-phenyl]-amide]: at BACE1, the IC50 came out at 15 nM.
As to `C[C@]1(c2cc(NC(=O)c3ccc(OCC(F)(F)C(F)F)cn3)ccc2F)N=C(N)OC[C@@H]1F` [Example 24, 5-(2,2,3,3-Tetrafluoro-propoxy)-pyridine-2-carboxylic acid [3-((4R,5R)-2-amino-5-fluoro-4-methyl-5,6-dihydro-4H-[1,3]oxazin-4-yl)-4-fluoro-phenyl]-amide], the IC50 at BACE1 is 17 nM.
On the same count and under the same terms, with `C[C@]1(c2cc(NC(=O)c3ccc(OCC(F)(F)C(F)(F)F)cn3)ccc2F)N=C(N)OC[C@@H]1F` [Example 25, 5-(2,2,3,3,3-Pentafluoro-propoxy)-pyridine-2-carboxylic acid [3-((4R,5R)-2-amino-5-fluoro-4-methyl-5,6-dihydro-4H-[1,3]oxazin-4-yl)-4-fluoro-phenyl]-amide] the figure was 52 nM.
In turn, `C[C@]1(c2cc(NC(=O)c3cncs3)ccc2F)N=C(N)OC[C@@H]1F` [Example 29, Thiazole-5-carboxylic acid [3-((4R,5R)-2-amino-5-fluoro-4-methyl-5,6-dihydro-4H-[1,3]oxazin-4-yl)-4-fluoro-phenyl]-amide] displayed an IC50 at BACE1 of 250 nM.
Still for that read-out and setting: the value for `Cc1cc(C(=O)Nc2ccc(F)c([C@@]3(C)N=C(N)OC[C@@H]3F)c2)nn1C` [Example 30, 1,5-Dimethyl-1H-pyrazole-3-carboxylic acid [3-((4R,5R)-2-amino-5-fluoro-4-methyl-5,6-dihydro-4H-[1,3]oxazin-4-yl)-4-fluoro-phenyl]-amide] was 760 nM; that for `C[C@]1(c2cc(NC(=O)C3(C#N)CC3)ccc2F)N=C(N)OC[C@@H]1F` [Example 31, 1-Cyano-cyclopropanecarboxylic acid [3-((4R,5R)-2-amino-5-fluoro-4-methyl-5,6-dihydro-4H-[1,3]oxazin-4-yl)-4-fluoro-phenyl]-amide] was 75 nM.
The compound `C[C@]1(c2cc(NC(=O)C3CC3)ccc2F)N=C(N)OC[C@@H]1F` [Example 32, Cyclopropanecarboxylic acid [3-((4R,5R)-2-amino-5-fluoro-4-methyl-5,6-dihydro-4H-[1,3]oxazin-4-yl)-4-fluoro-phenyl]-amide] had an IC50 against BACE1 of 730 nM. This IC50 is about 9.7-fold higher than that of the compound before.
In turn, `C[C@]1(c2cc(NC(=O)c3ccc(Cl)cn3)ccc2F)N=C(N)OC[C@H]1F` [Example 34, 5-Chloro-pyridine-2-carboxylic acid [3-((4R,5S)-2-amino-5-fluoro-4-methyl-5,6-dihydro-4H-[1,3]oxazin-4-yl)-4-fluoro-phenyl]-amide] had an IC50 on BACE1 of 42 nM.
On BACE1, `C[C@]1(c2cc(NC(=O)c3ccc(OCC(F)(F)F)cn3)ccc2F)N=C(N)OC[C@@H]1OCC(F)(F)F` [Example 49, 5-(2,2,2-Trifluoro-ethoxy)-pyridine-2-carboxylic acid {3-[(4R,5R)-2-amino-4-methyl-5-(2,2,2-trifluoro-ethoxy)-5,6-dihydro-4H-[1,3]oxazin-4-yl]-4-fluoro-phenyl}-amide] had an IC50 of 21 nM.
Compound `CC#CCOc1cnc(C(=O)Nc2ccc(F)c([C@@]3(C)N=C(N)OC[C@]3(C)F)c2)cn1` [Example 50, 5-But-2-ynyloxy-pyrazine-2-carboxylic acid [3-((4R,5R)-2-amino-5-fluoro-4,5-dimethyl-5,6-dihydro-4H-[1,3]oxazin-4-yl)-4-fluoro-phenyl]-amide] displayed a half-maximal inhibitory concentration (IC50) against BACE1 of 0.1 nM.

(Values after patent US8754075B2, “1,3-oxazines as BACE1 and/or BACE2 inhibitors” (Hoffmann-La Roche Inc., priority 2011, dated 2014).)
